Reference: patent US20250134952A1, “METHODS FOR IMPROVING THE EFFICACY OF HDAC INHIBITOR THERAPY AND PREDICTING THE RESPONSE TO TREATMENT WITH HDAC INHIBITOR” (INSTITUT NATIONAL DE LA SANTÉ ET DE LA RECHERCHE MÉDICALE, priority 2021, published 2025)

Test system: p21 promoter in MCF7shctrl or shTau cells
Experiment: ChIP-qPCR of H3 acetylation and Tau occupancy on the p21 promoter
Type: cell-based, human
Settings: for acetylated H3 enrichment compared to IgG: p21 promoter (transcription start site region)
Description: (A) Chromatin immunoprecipitations-qPCR analysis of H3 acetylation and Tau occupancy on the GAPDH promoter in MCF7shctrl cells in the indicated conditions. MCF7shctrl cells were subjected to cross-linking by 1% formaldehyde. Chromatin fragments were then immunoprecipitated using antibodies (Ab) against acetylated H3 (ac-H3) or Tau and analyzed by quantitative PCR for the presence of the GAPDH promoter. (B) Functional organization of the p21 promoter. (C) ChIP-qPCR analysis of H3 acetylation in MCF7shctrl or shTau cells or (D) Tau occupancy in MCF7shctrl cells on the p21 promoter. (E) ChIP-qPCR analysis of H3 acetylation or Tau occupancy on the stably transfected GAL4UAS responsive luciferase reporter transfected, or not, with Tau4R, then 24 h later treated with 100 nM TSA for 24 h. Cells were then subjected to cross-linking by 1% formaldehyde. Chromatin fragments were then immunoprecipitated using antibodies (Ab) against acetylated H3 or Tau and analyzed by quantitative PCR for the presence of the GAL4 UAS promoter. Quantification of enrichment is represented as fold-enrichment relative to IgG. Data are mean±SD **P<0.01***P<0.001
The ChIP protocol used was previously described (Lefebvre et al., 2006). Primers sequences for the pGL4.31[luc2P/GAL4 UAS/Hygro] promoter were: forward, 5′-[…]-3′ (SEQ ID N^o1), and reverse, 5′-[…]-3′ (SEQ ID N^o2); for p21 promoter: distal forward 5′-[…]-3′ (SEQ ID N^o3) and reverse 5′-[…]-3′ (SEQ ID N^o4); proximal forward 5′-[…]-3′ (SEQ ID N^o5) and reverse 5′-[…]-3′ (SEQ ID N^o6); p21 (transcription start site) TSS forward: 5′-[…]-3′ (SEQ ID N^o7) and reverse 5′-GCTCTCTCACCTCCTCTG3′ (SEQ ID N^o8); for GAPDH TSS: forward 5′-[…]-3′ (SEQ ID N^o9) and reverse 5′-[…]-3′ (SEQ ID N^o10). Antibodies used in the studies included the following: anti-acetylated H3 (Active motif, 39139) and anti-Tau1 (Millipore, MAB3420). All ChIP analyses were performed in at least two independent experiments.
To test this hypothesis, we next performed chromatin immunoprecipitations assays. Antibodies specific for acetylated H3 (ac-H3) and Tau were used to immunoprecipitate formaldehyde-cross-linked sonicated chromatin from short hairpin Tau knockdowns and control cells treated, or not, with 100 nM TSA. Quantitative PCR analysis of input or immunoprecipitated DNA using acetylated H3 and Tau antibodies was carried out to detect different promoter regions. As a control of non-TSA-inducible gene, we first used primers encompassing the transcription start site of the GAPDH promoter. No change in the level of acetylated H3, nor Tau binding, were detected after TSA treatment (FIG. 3A). […] In addition, Tau was detected at the level of these regions in MCF7shctrl cells (≈4-fold enrichment) in absence or presence of TSA treatment (FIG. 3D).

With `CC(/C=C/C(=O)NO)=C\[C@@H](C)C(=O)c1ccc(N(C)C)cc1` [TSA, 2,4-Heptadienamide, 7-[4-(dimethylamino)phenyl]-N-hydroxy-4,6-dimethyl-7-oxo-, (2E,4E,6R)-] the “acetylated H3 enrichment compared to non-treated cells” value (100 nM TSA, MCF7shTau cells, p21 proximal and distal regions) was “≈ 10 fold”, the “acetylated H3 enrichment compared to IgG” value (100 nM TSA, shctrl cells) was 70 fold and the “Tau enrichment (occupancy)” value (MCF7shctrl cells, p21 proximal and distal regions, in absence or presence of TSA treatment) was “≈ 4 fold”. The “acetylated H3 enrichment compared to IgG” value (shTau cells, irrespective of TSA treatment) was “≈ 160 fold”.
